Results reported in patent US8304418B2, “Pyrazolopyrimidinone kinase inhibitor” (Agennix AG, priority 2007, dated 2012).
“And” between values parts separate entries of the source, which are not always exact repeats. Identical values can stand only once. Like-named read-outs stand apart in the source and are kept apart here.

Tests used:
[1] = test system: cell lines A2780, HCT-116, HT-29, HepG2, NCI/ADR-RES, OVCAR3, H460, IMR-90, T98G, A549 among others; experiment: Inhibition of proliferation in a set of cancer-model cell lines; type: cell-based; details: read-out: IC50 values, inhibition of proliferation (range over cell lines)
Description: (§1) The assays used for determining the properties of the kinase inhibitors were performed in accordance with standard procedures well known to those skilled in the art. For example, assays for determining inhibitory activity on CDKs or in cellular assays are described in WO 00/218962, WO 2005/026129, and WO 2005/063765. Solubility assays at pH 7.4 were essentially performed as described by Avdeef, A. in Pharmacokinetic Optimization in Drug Research; Testa, B.; van de Waterbeemd, H.; Folkers, G.; Guy, R. Eds.; Wiley-VHC: Zurich, 2001; pp 305-326. PAMPA permeability assays at pH 7.4 were essentially performed as described in Kansy et al., J. Med. Chem. 41: 1007-10, 1998.

[2] = test system: H460 NSCLC; details: H460; for Max % TGI (d): day 13
Description: (§5) Xenograft Tumor-Models: 100 athymic nu/nu female mice (6-8 weeks old) from CRL were allowed to acclimate for 4 days. […] The 3rd passage of cells with approximate 90% confluence was used for these experiments. Briefly, on Day 0, mice were inoculated with 0.1 ml (total 5×10^6 cells) of the respective cell-type as a cell suspension (50×10^6 cells/ml) by subcutaneous injection into the fat pad area near the mammary gland under light anesthesia. When the average tumor weight in all mice reached over 100 mg (day 10), 80 animals with an average tumor size of 130 mg were selected and were randomly divided into 8 groups.
(§6) A 20 G gavage needle was used for the oral treatment.
(§7) Tumor growth and body weight were monitored and recorded three times a week. Tumors were measured by determining the length and width of the tumor with a digital caliper. Tumor weight was estimated using the following formula: Tumor Weight (mg)=(w^2×1)×0.52 where w=width and l=length in mm of the tumor.
(§8) Experimental treatment may cause partial regression (PR) or complete regression (CR) of tumors. PR is defined when the tumor size is 50% or less than the starting (day 1) size but greater than 0.0 mg for three consecutive measurements during the course of the study. CR occurs when there is no measurable tumor mass for three consecutive measurements. Cures are defined when CR are maintained until the completion of the experiment.
(§9) Mice were sacrificed when their tumors reached the 1000 mm^3 endpoint volume. Treatment efficacy was determined as Log Cell Kill (LCK).
(§10) Toxic deaths are defined as deaths caused by compound treatment and not by advanced disease state. […] Non-tumor related deaths after this point are recorded, but not considered toxic deaths.
(§11) Briefly, the empirical distributions of T and Td were derived from B=1000 realisations of random selection of n individual animals with replacement from the set i=1, . . . , n of the appropriate group of mice containing n evaluable animals, estimating the mean tumor size for such selection of animals for each time-point, and linear regression analysis from a semi-log plot of such averages against time. Dead mice and mice with no measurable tumor size were treated as missing data and were ignored when calculating the average.

[3] = biological target: CDK6 (Homo sapiens, UniProt Q00534); experiment: Biochemical CDK6 inhibition assay
Description: as §1

[4] = test system: CDK1-dependent Eg-5 phosphorylation on threonine 927; experiment: In-cell Eg-5 phosphorylation (immunoblot); type: cell-based, human; details: Homo sapiens, 1 h
Text: (§2) This set of assays represents CDKs involved in cell cycle progression (CDK1, 4/6), and the “regulatory CDK” (CDK9) which is involved in transcriptional regulation.
(§3) The following cancer cell lines were investigated in the course of these studies: A2780 (ovarian), HCT116 (colon), RPMI8226 (myeloma), SKMel28 (melanoma), Colo205 (colorectal), MDA-MB-435 (melanoma), MDA-MB-453 (breast, carcinoma), MDA-MB-468 (breast, adenocarcinoma), A549 (lung), Raji (lymphoma, Burkitt). Cell lines were obtained from public repositories.
CDK1-dependent Eg-5 phosphorylation on threonine 927 (Thr927phos). Thr927phos was investigated by arresting cells over night in G2/M phase with 25 ng/ml nocodazole (optimized final concentration) followed by treatment with DMSO as control or an appropriate concentration of test compound for 1 hour. Detached as well as adherent cells were collected and lysed with CLB-1 lysis buffer. the lysate cleared by centrifugation and subjected to SDS-PAGE. The proteins were blotted on PVDF membranes and subsequently analyzed by antibodies against total Eg-5 (Becton Dickinson) and Eg-5 Thr927phos (Bio legend). Visualization and estimation of IC50 was conducted as above.

[5] = biological target: CDK9 (Homo sapiens, UniProt P50750); experiment: Biochemical CDK9 inhibition assay; details: read-out: enzymatic IC50 of CDK9 activity
Description: as §1

[6] = test system: Sk-mel-28; experiment: Cell proliferation, Sk-mel-28; type: cell-based; details: Homo sapiens
Description: as §1
(§4) When compared to IC50s of cellular proliferation by compound I, (as determined by the methods described earlier), the corresponding IC50 for cellular inhibition of CDK9-dependent RNAPII phosphorylation is approximately similar.

[7] = test system: HCT116; experiment: Cell proliferation, HCT116; type: cell-based; details: Homo sapiens, HCT-116
Description: as §1, §4

[8] = test system: panel of non-CDK kinases; experiment: Inhibitory activity against a panel of non-CDK kinases; type: biochemical
Description: as §1

[9] = test system: MDA-MB-468; experiment: Cell proliferation, MDA-MB-468; type: cell-based; details: Homo sapiens
Description: as §1, §4

[10] = test system: Colo205; experiment: Cell proliferation, Colo205; type: cell-based; details: Homo sapiens, COLO 205
Description: as §1, §4

[11] = test system: human A2780 ovarian tumor cells
Description: Compound P (as hydrochloric acid salt) was formulated in 30% PEG300/70% water, and Compound I (as hydrochloric acid salt) was formulated in 20% PEG300/80% D5W (5% dextrose water) and administered by oral gavage twice every day for 10 days (bid×10), while the Cytoxan control which was administered i.p. in saline every two days over a period of 10 days (q2 d×5): […]

[12] = test system: CDK4/6-specific phosphorylation of Rb on serine 780; experiment: In-cell Rb phosphorylation (immunoblot); type: cell-based, human; details: Homo sapiens, read-out: IC50 (uM) - Rb-5 phosphorylation
Text: as §2, §3
CDK4/6-specific phosphorylation of Rb on serine 780 (Ser780phos). Asynchronous growing cells were treated with an appropriate concentration of test compound or DMSO for 1 hour. Proteins were extracted using the AllPrep RNA/Protein kit according to the manufacturer's recommendations (Qiagen, Germany). Rb was immunoprecipitated over night using Ab05 antibody (Oncogene Inc.). Proteins were separated by SDS-PAGE, blotted to PVDF membranes and analyzed with antibodies against total (sc-102; Santa Cruz) or Ser780-phosphorylated Rb proteins (Cell Signalling). Visualization and quantification was performed as above.

[13] = test system: HCT116 colon carcinoma cells
Description: as §5, §6, §7, §8, §9, §10, §11

[14] = test system: A2780; experiment: Cell proliferation, A2780; type: cell-based; details: Homo sapiens
Description: as §1, §4

Sequence of CDK9 (P50750 whole entry): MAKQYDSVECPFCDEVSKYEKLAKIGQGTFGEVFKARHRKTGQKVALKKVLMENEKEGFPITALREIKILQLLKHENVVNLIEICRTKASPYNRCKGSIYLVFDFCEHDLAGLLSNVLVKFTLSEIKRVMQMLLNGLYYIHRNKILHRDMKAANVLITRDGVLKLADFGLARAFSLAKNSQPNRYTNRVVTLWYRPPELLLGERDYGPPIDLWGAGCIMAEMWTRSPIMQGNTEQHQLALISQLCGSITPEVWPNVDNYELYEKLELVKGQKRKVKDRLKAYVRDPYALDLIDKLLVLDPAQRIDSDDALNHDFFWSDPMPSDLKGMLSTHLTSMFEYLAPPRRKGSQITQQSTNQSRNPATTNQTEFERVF
Sequence of CDK9 (O60563 whole entry partner): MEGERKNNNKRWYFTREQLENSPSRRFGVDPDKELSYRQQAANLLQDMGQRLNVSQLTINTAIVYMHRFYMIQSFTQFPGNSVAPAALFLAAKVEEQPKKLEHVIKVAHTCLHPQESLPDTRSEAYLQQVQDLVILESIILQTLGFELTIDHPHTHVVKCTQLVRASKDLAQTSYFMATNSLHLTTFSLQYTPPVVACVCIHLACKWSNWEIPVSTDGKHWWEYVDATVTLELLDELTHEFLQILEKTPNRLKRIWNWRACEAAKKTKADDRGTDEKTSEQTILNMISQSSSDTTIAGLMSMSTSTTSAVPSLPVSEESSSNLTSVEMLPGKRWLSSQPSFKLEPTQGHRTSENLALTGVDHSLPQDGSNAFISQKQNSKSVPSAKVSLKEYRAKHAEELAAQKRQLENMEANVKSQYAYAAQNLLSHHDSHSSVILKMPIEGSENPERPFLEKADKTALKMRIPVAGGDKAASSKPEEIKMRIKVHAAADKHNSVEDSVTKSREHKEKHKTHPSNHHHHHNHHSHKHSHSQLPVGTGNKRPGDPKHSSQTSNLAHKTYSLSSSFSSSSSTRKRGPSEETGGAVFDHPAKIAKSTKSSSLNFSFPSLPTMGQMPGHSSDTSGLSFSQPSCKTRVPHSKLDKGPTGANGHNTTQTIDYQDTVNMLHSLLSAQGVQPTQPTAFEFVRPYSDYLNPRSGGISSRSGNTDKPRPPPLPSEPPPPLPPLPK
Sequence of CDK6 (Q00534 whole entry): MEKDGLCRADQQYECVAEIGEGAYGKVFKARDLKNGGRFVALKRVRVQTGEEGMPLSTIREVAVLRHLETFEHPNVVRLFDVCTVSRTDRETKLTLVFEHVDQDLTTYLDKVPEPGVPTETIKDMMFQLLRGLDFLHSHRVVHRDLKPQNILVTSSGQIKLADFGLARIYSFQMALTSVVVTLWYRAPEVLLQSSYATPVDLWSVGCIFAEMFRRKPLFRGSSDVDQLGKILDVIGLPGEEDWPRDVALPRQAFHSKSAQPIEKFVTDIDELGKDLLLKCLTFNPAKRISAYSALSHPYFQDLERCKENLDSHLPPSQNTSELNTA
Sequence of CDK6 (P30281 whole entry partner): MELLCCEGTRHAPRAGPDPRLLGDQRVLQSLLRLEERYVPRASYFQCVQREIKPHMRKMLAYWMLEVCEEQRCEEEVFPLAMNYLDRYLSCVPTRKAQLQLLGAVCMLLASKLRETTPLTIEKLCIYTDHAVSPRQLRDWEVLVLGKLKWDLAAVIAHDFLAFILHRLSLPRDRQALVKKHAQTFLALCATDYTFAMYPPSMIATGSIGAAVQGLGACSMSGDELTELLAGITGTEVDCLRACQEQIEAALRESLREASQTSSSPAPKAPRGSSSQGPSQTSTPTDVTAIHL

CC(C)c1nn(-c2c(Cl)cncc2Cl)c2nc(Cc3ccc(CN4CCCC4)c(O)c3)[nH]c(=O)c12 [Compound I, 1-(3,5-dichloropyridin-4-yl)-6-(3-hydroxy-4-pyrrolidinomethyl-phenyl)methyl-3-isopropyl-pyrazolo[3,4-d]pyrimidin-4-one]
IC50 [1]: 10 to 800 nM | Toxic Mortality ([2]; 32 [30] mg/kg po qdx10, N=10): 0 | Max % TGI (d) ([2]; 32 [30] mg/kg po qdx10): 30.7 (13) % | LCK ± CI (95%) (Td: 2.6 d) ([2]; 63 [59] mg/kg po qdx10): 0.48 ± 0.15 and 0.48 | Toxic Mortality ([2]; 63 [59] mg/kg po qdx10, N=10): 0 | Max % TGI (d) ([2]; 63 [59] mg/kg po qdx10): 43.1 (13) % | LCK ± CI (95%) (Td: 2.6 d) ([2]; 95 [89] mg/kg po qdx10): 0.97 ± 0.25 and 0.97 | Toxic Mortality ([2]; 95 [89] mg/kg po qdx10): 2/10 | Max % TGI (d) ([2]; 95 [89] mg/kg po qdx10): 57.1 (13) % | IC50 [3]: 10 to 50 nM | IC50 ([4]; COLO 205, Colo205 cells): ~1 µM | IC50 ([4]; HCT-116, HCT116 cells): ~3 µM | IC50 ([4]; RPMI-8226, RPMI8226 cells): > 1 µM | IC50 ([4]; A549 cells): > 1 µM | IC50 ([4]; A2780 cells): ~1 µM | IC50 ([4]; MDA-MB-435 cells): ~0.5 µM | IC50 ([4]; MDA-MB-453 cells): ~1 µM | IC50 ([4]; Raji cells): > 1 µM | IC50 [5]: 1 to 10 nM | IC50 [6]: ~0.3 µM | IC50 [7]: ~0.1 µM | inhibitory activity against non-CDK kinases [8]: low inhibitory activity | IC50 [9]: ~0.3 µM | IC50 [10]: ~0.1 µM | Toxic Mortality ([11]; 15 [14] mg/kg po bidx10, N=10): 0 | Max % TGI (d) ([11]; 15 [14] mg/kg po bidx10, day 10): 47 (10) % | Max % BW Loss (d) ([11]; 15 [14 free base] mg/kg po bidx10, HCl salt, day 6): 0 (6) % | LCK ± CI (95%) (Td: 2.1 d) ([11]; 32 [30] mg/kg po bidx10): 1.72 ± 0.89 and 1.72 | Toxic Mortality ([11]; 32 [30] mg/kg po bidx10, N=10): 0 | Max % TGI (d) ([11]; 32 [30] mg/kg po bidx10, day 13): 81 (13) % | Max % BW Loss (d) ([11]; 32 [30] mg/kg po bidx10, day 15): 4.8 (15) % | LCK ± CI (95%) (Td: 2.1 d) ([11]; 48 [45] mg/kg po bidx10): 3.38 ± 0.81 and 3.38 | Cure ([11]; 48 [45] mg/kg po bidx10, N=10): 3 | Toxic Mortality ([11]; 48 [45] mg/kg po bidx10, N=10): 0 | Max % TGI (d) ([11]; 48 [45] mg/kg po bidx10, day 13): 97 (13) % | Max % BW Loss (d) ([11]; 48 [45] mg/kg po bidx10, day 15): 15.9 (15) % | CR ([11]; 48 [45] mg/kg po bidx10, mice with complete regression, N=10): 1 | PR ([11]; 48 [45] mg/kg po bidx10, mice with partial regression, N=10): 5 | IC50 ([12]; A2780, 1 h, A2780 cells): ~0.5 µM | IC50 ([12]; HCT-116, 1 h, HCT116 cells): ~5 µM | IC50 ([12]; MDA-MB-435, 1 h, MDA-MB-435 cells): ~3 µM | IC50 ([12]; RPMI-8226, 1 h, RPMI8226 cells): ~5 µM | IC50 ([12]; SK-MEL-28, 1 h, Sk-mel-28 cells): ~3 µM | LCK ± CI (95%) (Td: 6.8 d) ([13]; HCT116, 31.6 [29.5] mg/kg po qdx10): 0.21 ± 0.08 and 0.21 | Max % TGI (d) ([13]; HCT116, 31.6 [29.5] mg/kg po qdx10, day 32): 32.7 (32) % | LCK ± CI (95%) (Td: 6.8 d) ([13]; HCT116, 63.3 [59.1] mg/kg po qdx10): 0.51 ± 0.17 and 0.51 | Max % BW Loss (d) ([13]; HCT116, 63.3 [59.1] mg/kg po qdx10, day 16): 3.2 (16) % | Max % TGI (d) ([13]; HCT116, 63.3 [59.1] mg/kg po qdx10, day 32): 58.5 (32) % | LCK ± CI (95%) (Td: 6.8 d) ([13]; HCT116, 95 [89] mg/kg po qdx10): 0.60 ± 0.17 and 0.60 | Toxic Mortality ([13]; HCT116, 95 [89] mg/kg po qdx10): 1/10 | Max % TGI (d) ([13]; HCT116, 95 [89] mg/kg po qdx10, day 20): 68.4 (20) % | Max % BW Loss (d) ([13]; mouse, in vivo, po): 10.2 (16) % | IC50 [14]: ~0.1 µM
